In patent US7910624B1, “Compositions for the treatment of blood disorders” (The Trustees of Boston University, priority 1995, dated 2011):

Tests used:
bone marrow cells = conditions: continuous intravenous administration; cited from earlier work
[1] = system: BFU-e (burst forming unit-erythroid) colonies from peripheral blood mononuclear cells; experiment: Stimulation of erythroid proliferation in cell cultures (BFU-e colony growth); format: cell-based, human; conditions: 0.1 mM; 13-14 days; compared with control cultures
Description: Peripheral blood was collected from normal volunteers and patients with anemia due to sickle cell disease or thalassemia. Mononuclear cells were isolated by Ficoll-Hypaque (Pharmacia Biotech; Piscataway, N.J.) centrifugation and cultured in Iscove's Modified Dulbecco's Media (IMDM; GIBCO/BRL; Grand Island, N.Y.) supplemented with 10% fetal calf serum, 300 μg/ml glutamine, 3 units/ml IL-3 (Amgen; Thousand Oaks, Calif.), and 2 units/ml erythropoietin (Terry Fox Labs; Vancouver, B.C.). Chemical compounds were obtained from Sigma Chemical (St. Louis, Mo.) or Aldrich Chemical (Milwaukee, Wis.), unless otherwise indicated, and formulated into pharmaceutical compositions by dissolving in aqueous solutions of media or sterile water pH adjusted to about 7.4. Solutions were sterilized by passage at least once through 0.22 micron Nalgene filters and added to cell cultures at final concentrations that are pharmaceutically achievable in vivo (typically between about 0.1 mM to 2.0 mM). Cells were incubated with compounds for between 13-14 days at 37° C. in humidified 5% CO2, and fed and passed, as necessary. Colony growth, proportion of fetal globin-expressing cells and amounts of fetal globin production were assayed. Results are presented in Table 1 as BFU-e stimulation (colony growth).

[2] = system: erythroid cells (peripheral blood cells); experiment: Erythroid cell viability by Calcein-AM fluorescent staining (FIG. 2); format: cell-based; conditions: 0.5 mM
Description: Compositions were tested for the ability to directly stimulate erythroid cell growth. Cell growth stimulation is a useful property for an agent to be used to treat anemias and distinguishes such agents from the cytotoxic drugs currently being tested for treatment of hemoglobinopathies. Cell viability analyses were performed using fluorescent staining to detect living cells. Cells were in log phase of growth in 6-well dishes when used in proliferation assays. For enumeration of living cells, wells were washed once with medium to remove nonadherent or dead cells. Remaining live cells were labeled with 2 μM 2′,7′-bis-(carboxyethyl)-5-(and 6)-carboxy-fluorescein acetoxy-methyl ester (Calcein-AM) (Molecular Probes; Eugene, Oreg.) for 20 minutes at 37° C. and washed once. Fluorescence intensity of live cells was read on a CytoFluor 2300 Fluorescence Plate Scanner (Millipore; Bedford, Mass.) at excitation and emission wavelengths of 485 and 530 nm, respectively. The fluorescence intensity of a well was proportional to the number of living cells in the well. Background fluorescence was measured separately for each plate and subtracted from all readings. Each experiment was performed in triplicate or quadruplicate. The standard deviation (SD) of repetitive readings was less than 30% of the mean. Results are depicted in FIG. 2.

[3] = system: erythroid progenitor cells cultured from human cord blood; experiment: Fetal globin expression in human cell cultures (3H-leucine labelled globin chains, densitometry); format: cell-based
Description: Compositions were tested for activity in inducing fetal globin expression and protein production in erythroid progenitor cells cultured from human cord blood and analyzed as described by S. P. Perrine et al. (Blood 74: 454-60, 1989). Briefly, mononuclear cells were cultured in IMDM with 30% fetal calf serum and 2 units erythropoietin per ml to induce erythroid differentiation. Colonies were harvested on day 12-13, incubated with radio-labelled (^3H) leucine, and further incubated in leucine-free media, still in the presence of compounds, overnight. Globin composition in the erythroid cells was analyzed by laser densitometry of electrophoretically separated globin chains stained with Coomassie blue, and by autoradiography. Treated cells were incubated for 12-13 days (Table 2, Experiments A and B) or overnight (Table 2, Experiment C) in the presence of the indicated compounds and compared to untreated control cells cultured from the same human subject.

[4] = system: human erythroid cell line K562; experiment: Cell viability / growth of K562 by Calcein-AM fluorescence; format: cell-based; conditions: 0.5 mM; over 3 days
Description: Such activities might limit their utility for treatment of anemias such as occur in thalassemia, but alternatively would be useful for anticancer effects. To determine cell viability, human erythroid cells were cultured in the presence and absence of these compounds for 4 days and the amount of DNA fragmentation which occurred was measured.
Cell viability analyses were performed using fluorescent staining to detect living cells. Cells were in log phase of growth in 6-well dishes when used in proliferation assays. For enumeration of living cells, wells were washed once with medium to remove nonadherent or dead cells. Remaining live cells were labeled with Calcein-AM for 20 minutes at 37° C. and washed once. Fluorescence intensity of adherent live cells was read on a CytoFluor 2300 Fluorescence Plate Scanner (Millipore; Bedford, Mass.) at excitation and emission wavelengths of 485 and 530 nm, respectively. The fluorescence intensity of a well was proportional to the number of living cells in the well. Background fluorescence was measured separately for each plate and subtracted from all readings. Each experiment was performed in triplicate or quadruplicate. The standard deviation (SD) of repetitive readings was less than 30% of the mean.
At higher concentrations, still easily achievable in vivo, arginine butyrate (0.5 mM) and dihydrocinnamic acid (greater than 0.5 mM) inhibited growth of this tumor cell line by approximately 50%. Therefore, these compounds are also useful as anti-tumor agents.

anemic juvenile baboons = experiment: In vivo reticulocyte proliferation and globin expression in phlebotomized anemic baboons; set-up: species or system baboon
Description: Experiments were performed to determine if administration of the chemical compositions could induce fetal globin gene expression in an in vivo model similar to humans (S. P. Perrin et al., Brit. J. Haematol. 88:555-61, 1994). Briefly, chemicals were prepared as sterile pharmaceutical solutions in pH adjusted sterile water. A variety of chemical compositions were administered sequentially to some baboons. After administration of one compound, a wash-out period with no compound administration was maintained until reticulocytes returned to base line prior to administration of the next compound. This was done, at least partly, to compare the magnitude of response which occurred within the same individual animal to different compounds.
Briefly, juvenile female baboons (2 years old) were catheterized with arterial and venous catheters and phlebotomized gradually every day to maintain a moderate anemia of 7.0 to 7.5 grams hemoglobin/dl. Fetal reticulocytes, the newly produced red blood cells containing fetal globin, were assayed using a monoclonal antibody against fetal globin (HbF) as described by G. Dover et al. (Blood 67:735-38, 1986). Briefly, blood was stained with two antibodies, one specific for reticulocytes and another against fetal globin protein. The amount of antibody bound cells was determined by FACS analysis. Globin chain synthesis was assayed as described by J. B. Clegg et al. (J. Mol. Biol. 19:91-108, 1966). Briefly, reticulocytes were radio-labeled with ^3H-leucine which was incorporated in equal proportions into actively synthesized globin chains. After incubation in leucine-free media, cells were washed, and globin proteins were separated and purified by column chromatography. Radioactivity incorporated into each peak is compared and the ratios of gamma to gamma plus beta globin calculated. Each animal served as its own control with baseline monitoring assays performed for 4-6 weeks before any drug was administered. Phlebotomy was continued daily, so that peripheral HbF levels in the animals were not considered to be accurate over the short treatment time-frames and were not monitored. Safety monitoring was performed by frequent physical examinations, quantitation of food eaten, activity and frequent chemistry and hematology monitoring. Complete blood counts were assayed before, during and after treatment. Results presented were not adjusted to account for the daily phlebotomy.

| Structure (SMILES) | increase in γ globin mRNA of bone marrow cells (bone marrow cells) | BFU-e Stimulation (colony growth) [1] [%] | erythroid cell growth and proliferation compared to untreated controls (FIG. 2) [2] | Gamma Increase ([3]; Exp. A, 0.1 mM, 12-13 days, above untreated cells) [%] | Gamma Increase ([3]; Exp. C, 0.1 mM, overnight) [%] | Gamma Increase ([3]; Exp. C, 0.2 mM, overnight) [%] | Gamma Increase ([3]; Exp. C, 0.5 mM, overnight) [%] | growth of K562 [4] | fetal reticulocytes after treatment (anemic juvenile baboons; infused 4 days, 300 to 500 mg/kg per day, from 10%) [%] | red blood cell count after treatment (anemic juvenile baboons; intravenous 1,000 mg/kg/day, 4 days, from 2.3) | total hemoglobin after treatment (anemic juvenile baboons; intravenous 1,000 mg/kg/day, 4 days, from 6.6) [grams/dl] | packed red blood cell volume after treatment (anemic juvenile baboons; intravenous 1,000 mg/kg/day, 4 days, from 20.9%) |
| --- | --- | --- | --- | --- | --- | --- | --- | --- | --- | --- | --- | --- |
| Nc1ncn([C@@H]2O[C@H](CO)[C@@H](O)[C@H]2O)c(=O)n1 [AZA, 5-azacytidine] | five- to seven-fold | – | – | – | – | – | – | – | – | – | – | – |
| O=C(O)CCc1ccccc1 [DHC, Dihydrocinnamic acid] | – | 124 | either had no effect or stimulated erythroid cell growth and proliferation | 12.0 | 24 | 20.0 | 19 | either did not inhibit, or slightly enhanced growth | 17 | 2.73 ×10^6 cells/μl | 7.3 | 22.7 % of the blood |
